Experimental data reported in US20070105937A1, “Indole-3-propionamide and derivatives thereof” (priority 2003, published 2007).

Tests used:
rotifers (Philodina) [1] = assay: Synergistic effects on longevity of rotifers with ascorbate and trolox; assay type: in vivo; set-up: Maximum Life Span: unit not given here
Procedure: Ascorbate and trolox were administered at a concentration of 100 micromolar, the indoles were given at a concentration of 5 micromolar.

Aβ1-40 = molecular target: T1, Aβ1-40 (Homo sapiens, UniProt P05067); assay: Thioflavin T fluorescence, inhibition of Aβ aggregation; assay type: biochemical; settings: Aβ 250 μM, compound:Aβ molar ratio 1:1; FIG. 1
T1 construct: thioflavin T fluorescence experiments performed with Aβ1-40
Procedure: FIG. 1 illustrates the results of thioflavin T fluorescence experiments performed with Aβ1-40 showing the effects of IPAM as compared with melatonin and IPA.
The ThT was performed as previously described. Briefly, 5 μl were obtained from each sample after incubation and added to 2 ml of a glycine-NaOH buffer (50 mM), pH 9.2, containing 2 μM thioflavin T. Fluorescence intensities were measured at excitation 435 nm and emission 485 nm in a Hitachi F-2000 fluorescence spectrophotometer. A time scan of fluorescence intensity was performed and three measurements were obtained after the decay reached a plateau at 200, 220, and 240 seconds. These measurements were averaged after subtracting the background fluorescence of 2.0 μM thioflavin T in the blank buffers. […] All measurements were done in triplicate. Aqueous stock solutions of 1 mM of each compound were made by first preparing a 10 mM suspension in 1 N HCl and then by completely dissolving them in 100 mM phosphate buffered saline at pH 7.4 (1:10, v:v) and re-adjusting the pH to 7.4 with 1 N NaOH. Solutions of Aβ were prepared by dissolving 2.2 mg of the peptide in 1 ml of 50 mM bicarbonate buffer at pH 9.6. 50 μl aliquots of this solution were lyophilized and stored at −80° C. until needed. Working stock solutions of the peptide (500 μM concentration) were prepared in HPLC-grade water immediately prior to the experiments. In the experimental samples, Aβ was further diluted 1:1 with phosphate buffered saline (pH 7.4, 100 mM) to which each of the compounds or equivalent volumes of buffer solution were added. The final concentration of Aβ in each sample was 250 μM and the compound:Aβ molar ratios were 1:1.

rotifers (Philodina) [2] = assay: Inhibition of the aging process in a rotifer model (life span); assay type: in vivo
From the text: Free-radicals are involved in the aging process and since IPAM is a powerful cytoprotective agent, we tested IPAM for its property to inhibit the aging process. […] (*=p<0.05, statistically significant difference to control).

[3] = Time dependent indole levels in brain tissue after i.p. administration; assay type: in vivo, Sprague-Dawley rats; settings: mean+SD, N=4
Procedure: Time dependent changes in indole levels in brain tissue (pg/mg protein) after administration of 0.5 mg/kg i.p. of drug in phosphate buffered saline to one month old male Sprague-Dawley rats (N=4 animals, mean+SD). Endogenous levels of melatonin in saline treated control animals were 25+10 pg/mg protein, endogenous levels of indolepropionate were 80+20 pg/mg protein. Significant amounts of endogenous IPAM in rat brain could not be detected. Brain tissue was homogenized 1:10 in phosphate buffer and extracted 1:1 with ethylacetate. Recovery for melatonin, indolepropionate and IPAM were 57+6, 69+12 and 80+4%. Indoles were measured by HPLC with electrochemical detection (20% methanol eluent, 990 mV oxidation potential, IPAM elutes at 18 minutes, melatonin at 21 minutes, indolepropionate at 36 minutes).

[4] = system: Hydroxyl Radical Mediated Oxidative Damage to DNA; assay: Inhibition of hydroxyl radical mediated oxidative damage to DNA in rat forebrain homogenate (8-hydroxydeoxyguanosine formation); assay type: biochemical; settings: 60 min with 3 mM hydrogen peroxide, 4 mM ferrous sulfate, 2 mM ADP; mean+SD, N=6; read-out: IC 50 (concentration to reduce oxidative DNA damage by 50%)
Procedure: Rat forebrain homogenate was incubated for sixty minutes with 3 mM hydrogen peroxide, 4 mM ferrous sulfate and 2 mM ADP to generate hydroxyl radicals. The concentrations of each indole compound to reduce oxidative DNA damage by 50%, the IC 50 values, are given as means+standard deviations for N=6 different determinations. The IC 50 values were calculated by running six experiments each at 10 increasing concentrations ranging from 0.01 to 100 micromolar of melatonin, indole-3-propionic acid and indole-3-propionamide. DNA damage was examined by measuring the formation of 8-hydroxydeoxyguanosine with HPLC and electrochemical detection in the presence and absence of the hydroxyl radical scavengers.

[5] = in vivo; cited from earlier work
[6] = series against Control (0.1% DMSO), ascorbate, trolox 100 micromolar
[7] = 30 minutes after 0.5 mg/kg i.p. in phosphate buffered saline
[8] = 60 minutes after 0.5 mg/kg i.p. in phosphate buffered saline
[9] = 120 minutes after 0.5 mg/kg i.p. in phosphate buffered saline

T1 sequence (P05067 672-711): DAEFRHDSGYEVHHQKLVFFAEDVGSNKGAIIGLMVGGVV

Row | Compound | Increase in % of control (Medium Life Span) (rotifers (Philodina) [1]; control = 0.1% DMSO) | Maximum Life Span (rotifers (Philodina) [1]; [6]) | inhibition of Aβ aggregation (Aβ1-40) | Increase in % of control (maximum life span) (rotifers (Philodina) [2]; 0.5 μM) | Increase in % of control (median life span) (rotifers (Philodina) [2]; 0.5 μM) | Maximum life span in days (90% survival) (rotifers (Philodina) [2]; 0.5 μM, control 27) | Increase in % of control (maximum life span) (rotifers (Philodina) [2]; 5 μM) | Increase in % of control (median life span) (rotifers (Philodina) [2]; 5 μM) | Maximum life span in days (90% survival) (rotifers (Philodina) [2]; 5 μM, control 30) | Increase in % of control (maximum life span) (rotifers (Philodina) [2]; 50 μM) | Increase in % of control (median life span) (rotifers (Philodina) [2]; 50 μM) | Maximum life span in days (90% survival) (rotifers (Philodina) [2]; 50 μM, control 30) | indole levels in brain tissue [3, 7] | indole levels in brain tissue [3, 8] | indole levels in brain tissue [3, 9] | IC50 [4] | half-life [5] | other results
1 | Cc1c(C)c2c(c(C)c1O)CCC(C)(C(=O)O)O2 (stereo not drawn) [Trolox] | +8% | 30 | – | – | – | – | – | – | – | – | – | – | – | – | – | – | – | Maximum Life Span (rotifers (Philodina) [1]; series against Trolox in 0.1% DMSO, trolox 100 micromolar, indoles 5 micromolar): 34
2 | O=C1O[C@H]([C@@H](O)CO)C(O)=C1O [Ascorbate] | −1% | 28 | – | – | – | – | – | – | – | – | – | – | – | – | – | – | – | Increase in % of control (maximum life span) (rotifers (Philodina) [1]; control = 0.1% DMSO): −7%; Maximum Life Span (rotifers (Philodina) [1]; series against Ascorbate in 0.1% DMSO, ascorbate 100 micromolar, indoles 5 micromolar): 30
3 | NC(=O)CCc1c[nH]c2ccccc12 [IPAM, indole-3-propionamide] | – | – | potent inhibitor of Aβ aggregation | +55% | +31% | 42 days | +50% | +40% | 45 days | +13% | +15% | 34 days | 480 + 46 pg/mg protein | 520 + 50 pg/mg protein | 570 + 69 pg/mg protein | 180 nM | – | toxicity in rotifers (rotifers (Philodina) [2]; in vivo): devoid of toxicity
4 | O=C(O)CCc1c[nH]c2ccccc12 [IPA, indole-3-propionic acid] | – | – | potent inhibitor of Aβ aggregation | +37% | +28% | 39 days | +37% | +30% | 41 days | – | −3% | 30 days | 160 + 11 pg/mg protein | 210 + 18 pg/mg protein | 230 + 25 pg/mg protein | 7460 nM | 4.5 h | –
5 | COc1ccc2[nH]cc(CCNC(C)=O)c2c1 [Melatonin] | – | – | potent inhibitor of Aβ aggregation | +30% | +19% | 35 days | +40% | +29% | 42 days | +3% | +12% | 31 days | 450 + 30 pg/mg protein | 200 + 15 pg/mg protein | 73 + 6 pg/mg protein | 1400 nM | 0.333 h | –
